In patent US9561201B2, “Therapeutic compounds” (Fibrotech Therapeutics Pty Ltd, priority 2006, dated 2017):

Experiments:
[1] = system: rat mesangial cell line; assay: TGF-β stimulated 3H-proline incorporation in mesangial cells (Example 5); type: cell-based; settings: for Collagen synthesis: inhibition ranked against tranilast (T) or FT11
Method: (§1) A well-characterized cloned rat mesangial cell line (gift of D Nikolic-Patterson) is cultured in DMEM with FBS, 100 U/mL penicillin, and 100 ug/mL streptomycin in a humidified 5% CO2 atmosphere at 37° C. Cells are plated into 24-well culture dishes in DMEM/10% FBS at low density and allowed to adhere overnight. Cells are used between passages 20 and 40. The subconfluent cells are starved overnight in DMEM/0.1% FBS containing 150 uM L-ascorbic acid, prior to 4 hours of pre-treatment with or without tranilast or the FT compounds, followed by the addition of 5 ng/mL rhTGF-β11 (R&D Systems) and 1 uCi/mL of L-(2,3,4,5-^3H)-proline. Control wells have the compounds but no TGF-β1 added. Cells are incubated for a further 44 hours during which time their appearance is visually monitored. The cells are then washed three times in ice-cold PBS, twice in ice cold 10% TCA and solubilized in 750 uL 1M NaOH for 45 minutes at 37° C. or overnight at 4° C. A 500 uL aliquot is neutralized with 500 uL 1M HCl and 10 mL scintillation fluid (Instagel Plus-Perkin-Elmer) added. Counts are performed on a beta counter.
To normalize the proline incorporation counts to take into account the proliferative effects of TGF-β1, a BioRad protein assay is performed on a 100-150 uL aliquot of the remaining solubilized cells. The sample is neutralized with an equal amount of 1M HCl prior to the assay. The BSA standards used to construct the standard curve have the same amount of 1M NaOH and 1M HCl added as is present in the samples for assay.
Proline incorporation is expressed as cpm/ug protein. In order to compare inter-assay results, the incorporation is expressed as percentage reduction of TGF stimulated proline incorporation, where TGF alone gives 0% reduction and the zero control gives 100% reduction.

[2] = system: rat mesangial cell line; assay: Effect on mesangial cell appearance (visual monitoring during proline assay); type: cell-based
Method: as §1
Compounds in Bold have Minimal Effect on Cell Appearance and Viability

[3] = Rattus norvegicus, Mesangial cell, @ 30 μM, 5 ng/mL TGF-β1, 44 h, read-out: Mesangial Cell Assay TGF-β % reduction of TGF-β stimulation_proline inc.
[4] = Rattus norvegicus, Mesangial cell, 5 ng/mL TGF-β1, 44 h, read-out: Mesangial Cell Assay TGF-β % reduction of TGF-β stimulation_proline inc.
[5] = Rattus norvegicus, Mesangial cell, @ 10 μM, 5 ng/mL TGF-β1, 44 h, read-out: Mesangial Cell Assay TGF-β % reduction of TGF-β stimulation_proline inc.

SMILES | melting point | inhibition at 30 µM [1, 3] | Collagen synthesis [1] | also measured
COc1ccc(/C=C/C(=O)Nc2ccccc2C(=O)O)cc1OC [Analogue 1, (E)-2-[[3-(3,4-Dimethoxyphenyl)-1-oxo-2-propenyl]amino]benzoic acid] | – | 20 to 50% | =T | inhibition at 100 µM [1, 4]: 50 to 70%; Effect on mesangial cell appearance ([2]; @ 100 μM): stress @
O=C(/C=C/c1ccccc1)Nc1ccccc1C(=O)O [Analogue 2, (E)-2-[(1-Oxo-3-phenyl-2-propenyl)amino]benzoic acid] | 188 to 189 °C | – | <<T | –
COc1ccc(/C=C/C(=O)Nc2ccccc2C(=O)O)cc1 [Analogue 3, (E)-2-[[3-(4-Methoxyphenyl)-1-oxo-2-propenyl]amino]benzoic acid] | – | – | <<T | –
COc1cccc(/C=C/C(=O)Nc2ccccc2C(=O)O)c1 [Analogue 4, (E)-2-[[3-(3-Methoxyphenyl)-1-oxo-2-propenyl]amino]benzoic acid] | 183 to 184 °C | – | <<T | –
O=C(/C=C/c1ccc(O)c(O)c1)Nc1ccccc1C(=O)O [Analogue 5, (E)-2-[[3-(3,4-Dihydroxyphenyl)-1-oxo-2-propenyl]amino]benzoic acid] | 204 to 206 °C | – | May be toxic | Effect on mesangial cell appearance ([2]; no concentration stated): Cells looking
COc1cc(/C=C/C(=O)Nc2ccccc2C(=O)O)ccc1O [Analogue 6, (E)-2-[[3-(4-Hydroxy-3-methoxyphenyl)-1-oxo-2-propenyl]amino]benzoic acid] | 207.5 to 208.5 °C | – | <=T | inhibition at 10 µM [1, 5]: 20%; inhibition at 50 µM ([1]; Rattus norvegicus, Mesangial cell, @ 50 μM, 5 ng/mL TGF-β1, 44 h, read-out: Mesangial Cell Assay TGF-β % reduction of TGF-β stimulation_proline inc.): 45%
COc1ccc(/C=C/C(=O)Nc2cc(OC)c(OC)cc2C(=O)O)cc1OC [Analogue 9, (E)-2-[[3-(3,4-Dimethoxyphenyl)-1-oxo-2-propenyl]amino]-4,5-dimethoxybenzoic acid] | 236 to 239 °C | – | <<T | –
COc1ccc(CCC(=O)Nc2ccccc2C(=O)O)cc1OC [Analogue 10, 2-[[3-(3,4-Dimethoxyphenyl)-1-oxopropyl]amino]benzoic acid] | 137 °C | – | <<T | –
COc1ccc(/C=C/C(=O)Nc2ccccc2C(N)=O)cc1OC [Analogue 12, (E)-2-[[3-(3,4-Dimethoxyphenyl)-1-oxo-2-propenyl]amino]benzamide] | – | 20% | <FT11 | inhibition at 10 µM [1, 5]: ~13%; inhibition at 100 µM [1, 4]: 36%; Effect on mesangial cell appearance ([2]; @ 100 μM): sparse @
COc1ccc(/C=C/C(=O)Nc2ccccc2)cc1OC [Analogue 13, (E)-[3-(3,4-Dimethoxyphenyl)-1-oxo-2-propenyl]aminobenzene] | – | ~20% | <FT11 | inhibition at 100 µM [1, 4]: ~55%; Effect on mesangial cell appearance ([2]; @ 100 μM): sparse @
COc1ccc(/C=C/C(=O)Nc2ccc(C(=O)O)cc2)cc1OC [Analogue 14, (E)-4-[[3-(3,4-Dimethoxyphenyl)-1-oxo-2-propenyl]amino]benzoic acid] | – | – | <FT11 | inhibition at 100 µM [1, 4]: ~30%
C#CCNC(=O)c1ccccc1NC(=O)/C=C/c1ccc(OC)c(OC)c1 [Analogue 15, (E)-2-[[3-(3,4-Dimethoxyphenyl)-1-oxo-2-propenyl]amino]-N-propargylbenzamide] | – | 36% | <FT11 | inhibition at 10 µM [1, 5]: ~24%; inhibition at 100 µM [1, 4]: 75%; Effect on mesangial cell appearance ([2]; @ 30 μM): sparse @ 30; Effect on mesangial cell appearance ([2]; @ 100 μM): sparse @ 30
CCC#CCOc1cc(/C=C/C(=O)Nc2ccccc2C(=O)O)ccc1OC [Analogue 19] | – | – | >FT11 | Mesangial Cell Assay TGF-β % reduction of TGF-β stimulation_proline inc. ([1]; @ 10 μM, 5 ng/mL TGF-β1, 44 h): ~80% @ 10; Mesangial Cell Assay TGF-β % reduction of TGF-β stimulation_proline inc. ([1]; @ 30 μM, 5 ng/mL TGF-β1, 44 h): 100% @ 30
COc1cc(/C=C/C(=O)Nc2ccccc2C(=O)O)ccc1OCc1cn(CC(=O)Nc2ccccc2)nn1 [Analogue 20, (E)-2-[[3-(3-Methoxy-4-((1-(2-oxo-2-(phenylamino)ethyl)-1H-1,2,3-triazol-4-yl)methoxy)phenyl)-1-oxo-2-propenyl]amino]benzoic acid] | – | 50% | =FT11 | inhibition at 10 µM [1, 5]: 30%; inhibition at 100 µM [1, 4]: 90%; Effect on mesangial cell appearance ([2]; @ 100 μM): dead
CC#CCOc1ccc(/C=C/C(=O)Nc2ccccc2C(=O)O)cc1OC [Analogue 22, (E)-2-[[3-(4-(But-2-ynyloxy)-3-methoxyphenyl)-1-oxo-2-propenyl]amino]benzoic acid] | – | ~70% | =FT11 | inhibition at 3 µM ([1]; Rattus norvegicus, Mesangial cell, @ 3 μM, 5 ng/mL TGF-β1, 44 h, read-out: Mesangial Cell Assay TGF-β % reduction of TGF-β stimulation_proline inc.): ~37%; inhibition at 10 µM [1, 5]: 56%; Effect on mesangial cell appearance ([2]; @ 100 μM): dead
COc1ccc(/C=C/C(=O)Nc2ccccc2C(=O)NCc2cn(CC(=O)Nc3ccccc3)nn2)cc1OC [Analogue 32, (E)-2-(3-(3,4-Dimethoxyphenyl)acrylamido)-N-((1-(2-oxo-2-(phenylamino)ethyl)-1H-1,2,3-triazol-4-yl)methyl)benzamide] | – | 62% | Toxic | inhibition at 10 µM [1, 5]: ~26%; Effect on mesangial cell appearance ([2]; no concentration stated): Dead
COc1cc(/C=C/C(=O)Nc2ccccc2C(=O)O)ccc1OCc1ccccc1 [Analogue 43, (E)-2-[[3-(4-Benzyloxy-3-methoxyphenyl)-1-oxo-2-propenyl]amino]benzoic acid] | – | 70% | – | inhibition at 10 µM [1, 5]: 48%; Effect on mesangial cell appearance ([2]; @ 30 μM): Sick @; Effect on mesangial cell appearance ([2]; @ 100 μM): Sick @
COc1cc(/C=C/C(=O)Nc2ccccc2C(=O)O)ccc1OCc1ccc2ccccc2c1 [Analogue 44, (E)-2-[[3-(3-Methoxy-4-(naphth-2-ylmethoxy)phenyl)-1-oxo-2-propenyl]amino]benzoic acid] | – | – | Toxic | Effect on mesangial cell appearance ([2]; @ all concentrations): Cells damaged @

More lines, main results first:

melting point | SMILES | inhibition at 30 µM [1, 3] | Collagen synthesis [1] | also measured
209 to 211 °C | COc1ccc(/C=C/C(=O)Nc2ccccc2C(=O)O)cn1 [Analogue 46, (E)-2-[[3-(6-Methoxypyridin-3-yl)-1-oxo-2-propenyl]amino]benzoic acid] | – | <<FT11 | –
112 to 114 °C | COc1cc(/C=C/C(=O)Nc2ccccc2C(=O)O)ccc1OCC(=O)C12CC3CC(CC(C3)C1)C2 [Analogue 47] | – | – | –
195 to 201 °C | COc1cc(/C=C/C(=O)Nc2ccccc2C(=O)O)ccc1OCCN1CCOCC1 [Analogue 48, (E)-2-[[3-(3-Methoxy-4-(2-morpholinoethoxy)phenyl)-1-oxo-2-propenyl]amino]benzoic acid] | – | – | –
245 to 251 °C | COc1cc(/C=C/C(=O)Nc2ccccc2C(=O)O)ccc1OCc1cccnc1 [Analogue 49, (E)-2-[[3-(3-Methoxy-4-(pyridin-3-ylmethoxy)phenyl)-1-oxo-2-propenyl]amino]benzoic acid] | – | – | –
227 to 229 °C | COc1ccc(/C=C/C(=O)Nc2ccccc2C(=O)O)cc1OCc1c(C)noc1C [Analogue 50, (E)-2-[[3-((3-(3,5-Dimethylisoxazol-4-yl)methoxy)-4-methoxyphenyl)-1-oxo-2-propenyl]amino]benzoic acid] | – | – | –
202 to 205 °C | CCN(CC)Cc1cc(/C=C/C(=O)Nc2ccccc2C(=O)O)ccc1OC [Analogue 51, (E)-2-[[3-(3-((Diethylamino)methyl)-4-methoxyphenyl)-1-oxo-2-propenyl]amino]benzoic acid] | – | – | –
